Results from article PMC2248166, “Quantitative peptide binding motifs for 19 human and mouse MHC class I molecules derived using positional scanning combinatorial peptide libraries” (Immunome Research, 2008).

What was measured:
[1] = target: HLA A*6802 (Homo sapiens, UniProt P04439, A269V/D140Y/D185E/E176V/E277Q/E87N/F33Y/G231S/I121R/I166T/I218V/L180W/L300P/L318F/N151K/P208A/P217A/Q86R/R138H/R169H/S129P/T345S/V36M); format: binding
[2] = target: HLA B*5401 (Homo sapiens, UniProt P01889, A329T/C349S/D138N/D201E/E176V/E187T/E204Q/E69G/I76V/K202T/L119W/R155S/R180L/S121T/S35A/S48A/V127L/V306I/V36M/Y140L); format: binding
[3] = target: HLA A*0201 (Homo sapiens, UniProt P04439, D140Y/D185E/D98H/E176V/E277Q/G131W/G231S/I119V/I121R/I166T/I218V/L300P/L318F/N151K/N90K/P208A/P217A/Q86G/Q94H/R138H/R169H/T345S); conditions: positional scanning combinatorial 9-mer library; normalized to 1.0 for the best residue at each position
[4] = target: HLA B*2705 (Homo sapiens, UniProt P01889, D138H/D201E/E176V/E204Q/G107R/H137Y/K202T/N104T/N87E/Q56L/Q94K/R106L/R155S/R180L/S101D/S121N/S48T/Y140D/Y33H/Y91C); format: binding; conditions: positional scanning combinatorial 9-mer library; normalized to 1.0 for the best residue at each position
[5] = target: H-2 D^b (Mus musculus, UniProt P01899); format: binding
H-2 D^b, sequence (P01887 21-119): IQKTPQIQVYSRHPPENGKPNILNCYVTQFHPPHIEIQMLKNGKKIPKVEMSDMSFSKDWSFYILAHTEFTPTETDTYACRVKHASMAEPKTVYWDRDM
H-2 D^b, sequence (P01899 25-362): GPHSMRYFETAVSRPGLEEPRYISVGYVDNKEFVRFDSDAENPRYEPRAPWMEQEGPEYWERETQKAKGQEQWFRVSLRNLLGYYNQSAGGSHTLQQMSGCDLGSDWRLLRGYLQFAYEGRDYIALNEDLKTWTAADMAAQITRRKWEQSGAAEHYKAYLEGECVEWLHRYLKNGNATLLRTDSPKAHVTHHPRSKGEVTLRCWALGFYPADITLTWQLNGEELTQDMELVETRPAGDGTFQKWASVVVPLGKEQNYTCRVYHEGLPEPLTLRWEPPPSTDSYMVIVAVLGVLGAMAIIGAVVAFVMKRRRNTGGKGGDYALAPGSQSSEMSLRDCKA

[6] = target: HLA A*3201 (Homo sapiens, UniProt P04439, A270S/D101S/D185E/E176V/E277Q/F133L/G103R/G107R/G231S/H175R/I121M/I218V/I322F/K168Q/L105A/L300P/L318F/M331R/P208A/P217A/Q94H/R106L/R138Q/S129P/T104I/T323A/T345S/V100E/V321M/V358M); experiment: biochemical; format: binding
[7] = target: HLA B*1503 (Homo sapiens, UniProt P01889, A329T/A93T/A95T/C349S/D201E/D98Y/E187L/E204Q/K202T/N87E/Q94N/R155S/R180L/S121R/S35A/V306I/V36M/Y140S/Y91S); experiment: biochemical; format: binding
[8] = target: HLA B*5802 (Homo sapiens, UniProt P01889, A329T/C349S/D201E/D98Y/E176V/E187L/E204Q/E69T/G107R/I218V/I90N/K202T/L105A/N104I/N87E/Q89R/Q94S/R106L/R155S/R180L/R86G/S101N/S121W/S35A/S48A/V127L/V306I/V36M/Y140S/Y91M); format: binding
[9] = target: HLA A*3001 (Homo sapiens, UniProt P04439, D140H/D185E/E176W/F33S/G80R/H175R/K168Q/R138E/R41S); experiment: biochemical; format: binding
[10] = target: HLA B*5301 (Homo sapiens, UniProt P01889, A329T/A93T/A95T/C349S/D201E/D98Y/E176V/E187L/E204Q/E69T/G107R/I218V/K202T/L105A/L119I/N104I/Q94N/R106L/R155S/R180L/S101N/S121R/S35A/S48A/T118I/V127L/V306I/V36M/Y140S/Y91F); format: binding
[11] = target: HLA B*5801 (Homo sapiens, UniProt P01889, A329T/C349S/D201E/D98Y/E176V/E187L/E204Q/E69T/G107R/I218V/I90N/K202T/L105A/L119I/N104I/N87E/Q89R/Q94S/R106L/R155S/R180L/R86G/S101N/S121R/S35A/S48A/T118I/V127L/V306I/V36M/Y140S/Y91M); format: binding
[12] = target: HLA B*0801 (Homo sapiens, UniProt P01889, A93T/A95T/D138N/E176V/E187T/K202T/Q94N/R180D/S35A/V36M/Y33D/Y91F); experiment: biochemical; format: binding
[13] = target: HLA B*1501 (Homo sapiens, UniProt P01889, A329T/A93T/A95T/C349S/D201E/D98Y/E187L/E204Q/E69M/E70A/K202T/N87E/Q94N/R155S/R180W/S121R/S35A/S48A/V306I/V36M/Y140S/Y91S); experiment: biochemical; format: binding
[14] = target: HLA B*0702 (Homo sapiens, UniProt P01889); format: binding; conditions: positional scanning combinatorial 9-mer library; normalized to 1.0 for the best residue at each position
[15] = target: HLA B*5101 (Homo sapiens, UniProt P01889, A329T/A93T/A95T/C349S/D138N/D201E/D98Y/E187L/E204Q/E69T/G107R/I218V/K202T/L105A/L119W/N104I/Q94N/R106L/R155S/R180L/S101N/S121T/S35A/S48A/V306I/V36M/Y195H/Y91F); format: binding
[16] = target: HLA B*3501 (Homo sapiens, UniProt P01889, A329T/A93T/A95T/C349S/D201E/D98Y/E176V/E187L/E204Q/E69T/I218V/K202T/L119I/Q94N/R155S/R180L/S121R/S35A/S48A/T118I/V127L/V306I/V36M/Y140S/Y91F); format: binding
[17] = target: H-2 K^k (Mus musculus, UniProt P04223); format: binding
H-2 K^k, sequence (P01887 21-119): as the sequence (P01887 21-119) above
H-2 K^k, sequence (P04223 22-369): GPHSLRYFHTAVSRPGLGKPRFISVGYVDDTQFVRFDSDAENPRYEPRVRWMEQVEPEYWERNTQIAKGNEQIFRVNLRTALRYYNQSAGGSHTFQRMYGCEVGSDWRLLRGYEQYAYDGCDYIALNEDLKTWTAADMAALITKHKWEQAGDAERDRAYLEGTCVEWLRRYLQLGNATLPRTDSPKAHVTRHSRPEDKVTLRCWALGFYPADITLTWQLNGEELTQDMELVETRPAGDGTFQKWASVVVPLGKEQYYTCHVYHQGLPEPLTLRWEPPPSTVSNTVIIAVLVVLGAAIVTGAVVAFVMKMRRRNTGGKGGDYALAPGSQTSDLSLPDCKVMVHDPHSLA

[18] = target: H-2 D^d (Mus musculus, UniProt P01900); format: binding
H-2 D^d, sequence (P01900 whole entry, looked up): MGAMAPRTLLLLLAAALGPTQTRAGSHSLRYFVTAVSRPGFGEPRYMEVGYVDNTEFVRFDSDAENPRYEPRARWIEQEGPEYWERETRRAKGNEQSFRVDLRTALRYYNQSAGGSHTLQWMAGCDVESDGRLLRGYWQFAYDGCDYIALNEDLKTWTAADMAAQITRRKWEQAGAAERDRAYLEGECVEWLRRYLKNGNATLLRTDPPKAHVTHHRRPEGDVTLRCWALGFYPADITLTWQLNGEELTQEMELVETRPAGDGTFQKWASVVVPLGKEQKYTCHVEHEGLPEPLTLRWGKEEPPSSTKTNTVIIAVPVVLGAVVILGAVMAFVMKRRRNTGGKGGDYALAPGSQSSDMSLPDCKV

Sequence | Normalized average relative binding affinity (ARB), HLA A*6802 [1] | Normalized average relative binding affinity (ARB), HLA B*5401 [2] | Normalized average relative binding affinity (ARB), HLA A*0201 [3] | Normalized average relative binding affinity (ARB), HLA B*2705 [4] | Normalized average relative binding affinity (ARB), H-2 Db [5] | Normalized average relative binding affinity (ARB), HLA A*3201 [6] | Normalized average relative binding affinity (ARB), HLA B*1503 [7] | Normalized average relative binding affinity (ARB), HLA B*5802 [8] | Normalized average relative binding affinity (ARB), HLA A*3001 [9] | Normalized average relative binding affinity (ARB), HLA B*5301 [10] | Normalized average relative binding affinity (ARB), HLA B*5801 [11] | Normalized average relative binding affinity (ARB), HLA B*0801 [12] | Normalized average relative binding affinity (ARB), HLA B*1501 [13] | Normalized average relative binding affinity (ARB), HLA B*0702 [14] | Normalized average relative binding affinity (ARB), HLA B*5101 [15] | Normalized average relative binding affinity (ARB), HLA B*3501 [16] | Normalized average relative binding affinity (ARB), H-2 Kk [17] | Normalized average relative binding affinity (ARB), H-2 Dd [18]
XXTXXXXXX [3064.0057] | 0.14 | 0.012 | 0.14 | 0.26 | 0.057 | 0.16 | 0.23 | 0.16 | 0.0040 | 0.045 | 0.39 | 0.054 | 0.12 | 0.035 | 0.14 | 0.14 | 0.11 | 0.0048
XXVXXXXXX [3064.0058] | 0.64 | 0.034 | 0.25 | 0.19 | 0.17 | 0.31 | 1.0 | 0.56 | 0.0059 | 0.11 | 1.0 | 0.024 | 0.14 | 0.040 | 0.25 | 0.19 | 0.26 | 0.0094
XXWXXXXXX [3064.0059] | 0.70 | 1.0 | 0.58 | 0.68 | 0.18 | 0.95 | 0.35 | 0.95 | 0.0080 | 0.076 | 0.29 | 0.19 | 0.16 | 0.14 | 0.47 | 0.61 | 0.48 | 0.0028
XXXAXXXXX [3064.0061] | 0.24 | 0.41 | 0.90 | 0.28 | 0.69 | 0.38 | 0.41 | 0.51 | 0.48 | 0.36 | 0.46 | 0.40 | 0.40 | 0.23 | 0.39 | 0.42 | 0.63 | 0.52
XXXCXXXXX [3064.0062] | 0.13 | 0.22 | 0.20 | 0.25 | 1.0 | 0.12 | 0.34 | 0.52 | 0.31 | 0.14 | 0.23 | 0.41 | 0.39 | 0.18 | 0.26 | 0.089 | 0.37 | 0.56
XXXDXXXXX [3064.0063] | 0.31 | 0.28 | 0.91 | 0.26 | 0.072 | 0.14 | 0.13 | 0.069 | 0.22 | 0.26 | 0.17 | 0.072 | 0.30 | 0.16 | 0.74 | 0.18 | 0.46 | 0.30
